# According to patent US5677439A, “Oligonucleotide analogues containing phosphate diester linkage substitutes, compositions thereof, and precursor dinucleotide analogues” (Sanofi, priority 1995, dated 1997):
# Entries after “also recorded” stand apart in the source; their conditions may differ.
# Legend:
# [1] = test system: fetal calf serum-associated exonuclease; experiment: Nuclease resistance: 2 h incubation in cell culture medium with 10% fetal calf serum, HPLC of parent compound; format: in vitro ADME; conditions: for % DEGRADATION MAJOR PEAK: 2 hours at 37° C., 6 or 7 μM, RPMI 1640 medium with 10% heat inactivated FCS; for degradation / resistance to hydrolysis by FCS-associated exonucleases (in words): 2 hrs incubation, 10% FCS; for AREA-MAJOR PEAK/2.0 HR: HPLC peak area of parent compound after 2.0 hr at 37° C. in RPMI 1640 with 10% FCS; for AREA-MAJOR PEAK/0.0 MIN: HPLC peak area of parent compound, 260 nm; for % of oligomer remained after incubation: 2 hrs incubation with fetal calf serum-associated exonuclease
# Experimental: The oligonucleotides of Table 4 were dissolved in water. DNA concentrations were then determined by measuring the absorbance of samples at 260 nm (on a Perkin Elmer Lambda 4C Spectrophotometer at ambient room temperature) and using calculated extinction coefficients [method of Cantor and Warsaw, CRC Handbook of Biochemistry and Molecular Biology, 3rd. ed.
# The FCS was heat inactivated at 56° C. for 0.5 hour prior to use. Samples were then placed on ice and deproteinized using five extractions with 24:1 chloroform:isoamyl alcohol. Samples were either stored frozen at -20° C. or immediately loaded onto a refrigerated (4° C.) WISP (Waters) HPLC autoinjector.
# Oligonucleotide hydrolysis was guantitated by determining the amount of disappearance of the parent compound. Oligonucleotides (from the reaction mixture) were separated on an LKB Ultrachrome GTi dual pump chromatography system equipped with a fixed wavelength detector (260 nm), and recording integrator, using a GenPak FAX (Waters) anion exchange column eguilibrated in Buffer A (1 mM EDTA; 15 mM sodium phosphate, pH 8.5). Column temperature was maintained at 60° C. using a Waters column oven. Fifty microliter sample injection volumes were used. The oligonucleotides were eluted using a linear gradient of 0% to 100% Buffer B (Buffer A containing 0.5M NaCl) over 60 minutes. Buffer flow rate was 1 mL/min.
# PHA stimulated human PBL = experiment: Progression of PHA stimulated PBL into the S-phase of the cell cycle (flow cytometry); format: cell-based; conditions: PHA stimulation 48 hours, versus nontreated control
# Experimental: Human PBL's were stimulated with PHA for 48 hours in the presence or absence of the antisense oligonucleotide sequences of Table 6. The percent of the population of cells in each treatment group in the S-phase of the cell cycle as compared to the nontreated control was determined using standard flow cytometric techniques.
# [2] = test system: c-myc protein in MOLT-4 human T-cell leukemia cells; experiment: C-MYC protein expression in MOLT-4 cells (35S-methionine, radioimmunoprecipitation); format: cell-based; conditions: 60 μM, 8 hours incubation
# Experimental: Asynchronous exponentially growing Molt-4 cells were incubated for 8 hours in the presence or absence of 60 μM c-myc directed antisense DNA. The cells were then incubated for 45 minutes in the presence of ^35 S-methionine and the content of c-myc protein guantitated using radioimmunoprecipitation with a c-myc antibody.
Substance,% DEGRADATION MAJOR PEAK [1],degradation / resistance to hydrolysis by FCS-associated exonucleases (in words) [1],AREA-MAJOR PEAK/2.0 HR [1],AREA-MAJOR PEAK/0.0 MIN [1],% of oligomer remained after incubation [1],% CONTROL S-PHASE (PHA stimulated human PBL; 30 μM),% CONTROL S-PHASE (PHA stimulated human PBL; 60 μM),% REDUCTION C-MYC PROTEIN [2]
"5' X GGA GCT GGT GGC GTA X (A) 3' (antisense GGAGCTGGTGGCGTA; triethylene glycol unit at both ends, extra 3' A, further chemistry not given here) [Ref. Code 7, TEG-terminated anti-RAS oncogene DNA, X is TEG]",0.0%,no degradation; also recorded: completely resistant to hydrolysis,0.3663,0.2325,,,,
"5' CCT CGA CCA CCG CAT 3' (DNA CCTCGACCACCGCAT; DNA, backbone and methylation of C not given here) [Ref. Code 11, unmodified oligodeoxynucleotide made by standard solid phase phosphoramidite procedures, comparison, reference compound]",75.3%,,0.3177,1.2861,24.7%,,,
"5' XX GGA GCT GGT GGC GTA XX (A) 3' (antisense GGAGCTGGTGGCGTA; two triethylene glycol units at each end, extra 3' A, further chemistry not given here) [Ref. Code 8, TEG-terminated anti-RAS oncogene DNA, X is TEG]",17.9%,,0.1777,0.2164,82.1%,,,
"5' XX CCT CGA CCA CCG CAT XX (A) 3' (antisense CCTCGACCACCGCAT; two TEG at each end, 3' A, chemistry not fully specified) [Ref. Code 10, TEG-terminated anti-RAS oncogene DNA, X is TEG]",0.0%,no degradation; also recorded: completely resistant to hydrolysis,0.3697,0.3642,,,,
5' AAC GTT GAG GGG CAT 3' [reference compound],,,,,,75 ± 6%,9 ± 10%,61.0 ± 2.6%
"5' X CCT CGA CCA CCG CAT X (A) 3' (antisense CCTCGACCACCGCAT; triethylene glycol unit at both ends, extra 3' A, further chemistry not given here) [Ref. Code 9, TEG-terminated anti-RAS oncogene DNA, X is TEG]",13.0%,,0.3258,0.3744,87.0%,,,
